The source of these data is patent publication US20260274819A1, “ULK1 INHIBITOR, PREPARATION METHOD THEREFOR AND USE THEREOF” (DOVETREE MEDICINES UNUS, INC., priority 2023, published 2026).

For one assay, the system named is ATG13 phosphorylation level in MIA PaCa-2 cells. Briefly: Inhibition of ATG13 phosphorylation level in MIA PaCa-2 cells (pATG13 ELISA). The format is cell-based. The conditions noted are these: Homo sapiens, Torin1 100 nM, 24 h incubation, Phospho-Atg13 (ser355). The protocol: The inhibitory effect of the compound of the present disclosure on ULK1 was evaluated by testing the inhibitory effect of the compound of the present disclosure on ATG13 phosphorylation level in MIA PaCa-2 cells.
MIA PaCa-2 cells (ATCC, CRM-CRL-1420) were cultured in a complete medium, namely, a DMEM medium (Gibco, 11965-092) containing 10% fetal bovine serum (Corning, 35-081-CV), 2.5% horse serum (Gibco, 16050-122) and 1% double antibody (Gibco, 15140-122). The experiments were performed according to the requirements of the kit (Cell Signaling Technology, 17208C).
Cell plating: MIA PaCa-2 at 80% growth confluence were digested, diluted with the complete medium, and added to a 96-well cell culture plate (Costar, 3596) at 20,000 cells per well, with a volume of 90 μL.
Compound incubation: 5 μL of Torin1 and 5 μL of a serially diluted compound were added to each well so that the highest concentration of the compound in the reaction system was 10 μM. 5-fold serial dilution with 8 concentrations was performed, and the final concentration of Torin1 was 100 nM. The DMSO content in the system was 0.1%. The reaction plate was placed in an incubator at 37° C. in 5% CO2, and was incubated for 24 h. 10 μL of Torin1 was added to the negative control wells (NC) to a final concentration of 100 nM, with a DMSO content of 0.1%.
Reaction detection: After the incubation was completed, the cell plate was washed with a pre-cooled DPBS (Corning, 21-031-CVC) to wash away the compound and medium. 50 μL of pre-cooled cell lysis solution was added to each well, incubated on ice for 10 min. The cell plate was centrifuged, and the supernatant was transferred to an ELISA reaction plate. Simultaneously, 50 μL of Phospho-Atg13 (ser355) rabbit detection antibody was added, followed by incubation at room temperature under shaking for 60 min. After the incubation was completed, the reaction plate was washed with a washing solution for 4 times. 100 μL of TMB substrate was added for color development reaction, followed by incubation under shaded conditions with shaking for 15 min. Finally, 100 μL of stop solution was added to each well. The reaction was terminated by shaking for 10 s, and the absorbance value at 450 nm and 560 nm were collected within 10 min using Envision (Perkin Elmer, EnVision 2105).
The inhibition ratio was calculated by subtracting the absorbance value at […] from the absorbance value at 450 nm for each well. The inhibition ratio formula is as follows: inhibition ratio=(sample signal value−negative control signal value)/(positive control signal value -negative control signal value)×100%.
The dose-effect curve was fitted using the log (inhibitor) vs. response -Variable slope of Graphpad Prism8, thereby affording the IC50 value of each compound for inhibiting ATG13 phosphorylation level.
Take `CN1CCN(c2ccc(Nc3ncc(C(F)(F)F)c(N4CC5(CCN(C)C5)C4)n3)c(C3CC3)c2)CC1` [Example 25]: the concentration for half-maximal inhibition (IC50) lay in the range of 100 to 1000 nM.

The target of the next assay is T1, ULK1 (Homo sapiens, UniProt O75385).
T1 construct: purchased Promega V3521
T1 sequence (O75385 1-649 limits assumed): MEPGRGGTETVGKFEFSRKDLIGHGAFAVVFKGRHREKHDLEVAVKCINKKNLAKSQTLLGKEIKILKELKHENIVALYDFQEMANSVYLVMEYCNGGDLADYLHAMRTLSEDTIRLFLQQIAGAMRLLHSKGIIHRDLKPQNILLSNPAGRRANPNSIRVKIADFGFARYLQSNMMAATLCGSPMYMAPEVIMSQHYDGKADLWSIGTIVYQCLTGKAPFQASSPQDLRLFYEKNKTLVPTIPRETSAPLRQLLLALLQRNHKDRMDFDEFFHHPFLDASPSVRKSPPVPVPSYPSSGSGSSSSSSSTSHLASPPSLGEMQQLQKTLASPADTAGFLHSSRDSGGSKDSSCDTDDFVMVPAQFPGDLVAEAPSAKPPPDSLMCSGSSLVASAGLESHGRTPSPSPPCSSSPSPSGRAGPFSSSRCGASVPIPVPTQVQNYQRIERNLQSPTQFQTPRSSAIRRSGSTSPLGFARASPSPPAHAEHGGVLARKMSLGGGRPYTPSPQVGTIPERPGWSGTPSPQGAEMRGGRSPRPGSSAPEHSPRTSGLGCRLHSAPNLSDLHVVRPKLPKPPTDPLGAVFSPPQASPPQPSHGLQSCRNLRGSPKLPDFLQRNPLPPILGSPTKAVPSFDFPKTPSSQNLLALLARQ
Kind of assay: Inhibition of ULK1 protein activity (ADP-Glo method). It is filed as biochemical. The conditions noted are these: ULK1 enzyme, ATP and MBP substrate, 60 min room temperature. Here is the method:
In this experiment, the inhibitory effect of a compound on the phosphorylation function of ULK1 was detected by ADP-Glo method. The inhibitory effect of the compound of the present disclosure on the ULK1 target was evaluated based on IC50.
Compound formulation: Using an ECHO (Beckman, ECHO650), the compound was serially diluted 3-fold in DMSO in a 384-well plate (PE, 6007290). A total of 10 concentration points were set, with the maximum concentration of the compound being 10 μM, and 50 nL per well. Positive control wells and negative control wells were added with 50 nL DMSO, respectively.
Reaction process: A 32 nM of ULK1 (Promega, V3521) solution was formulated, and 2.5 μL/well was transferred to the compound test wells and the negative control wells (NC). 2.5 μL/well of 1× Assay buffer was added to the positive control wells (PC). A mixed solution of 100 μM of ATP and 1.86 μM of MBP was formulated, and 2.5 μL/well was transferred to the reaction plate. After centrifugation, the reaction was initiated and incubated at room temperature for 60 min. After the reaction was completed, 5 μL/well of ADP-Glo Reagent (Promega, V9102) was added to the reaction plate. After centrifugation, the reaction was incubated at room temperature for 40 minutes. Finally, 10 μL/well of Kinase Detection Buffer was added, followed by centrifugation and incubation at room temperature for 30 min. The chemiluminescence value was read using Envision (PE, Envision2105).
Assay buffer: a reaction buffer; and Kinase Detection buffer: a detection buffer, both were taken from the ADP-Glodetection kit, purchased from Promega, model V9102. 3. Data analysis
The inhibition ratio of a compound on ULK1 activity was calculated using the following formula:
Inhibition ratio=(sample signal value−negative control signal value)/(positive control signal value−negative control signal value)×100%. The dose-effect curve was fitted using the log(inhibitor) vs. response -Variable slope of the analysis software GraphPad Prism 8, thereby affording the IC50 value of each compound for enzyme activity.
On the technique in general: In ADP-Glo the light output rises with the ADP produced.
The compound `Cc1ccn(C2CN(c3nc(Nc4ccc(N5CCN(C)CC5)cc4C4CC4)ncc3C(F)(F)F)C2)n1` [Example 2] yielded an IC50 of 100 to 1000 nM.
Same read-out and setting: in the case of `CN1CCN(c2ccc(Nc3ncc(C(F)(F)F)c(N4CCN(C(=O)C5CCC5)CC4)n3)c(C3CC3)c2)CC1` [Example 3] it was 100 to 1000 nM; in that of `CN1CCN(c2ccc(Nc3ncc(C(F)(F)F)c(N4CCC(NC(=O)C5CCC5)CC4)n3)c(C3CC3)c2)CC1` [Example 4], 100 to 1000 nM; in that of `CN1CCN(c2ccc(Nc3ncc(C(F)(F)F)c(N4CCC(N5CCCC5=O)CC4)n3)c(C3CC3)c2)CC1` [Example 6], > 1000 nM.
The same measure, in the same setting: in the case of `CN1CCN(c2ccc(Nc3ncc(C(F)(F)F)c(NC(=O)C4CCC4)n3)c(C3CC3)c2)CC1` [Example 7] it was 100 to 1000 nM; in that of `CN1CCN(c2ccc(Nc3ncc(C(F)(F)F)c(N4CCC(N5CCCCC5=O)CC4)n3)c(C3CC3)c2)CC1` [Example 8], > 1000 nM.
On to `CN1CCN(c2ccc(Nc3ncc(C(F)(F)F)c(N4CCCN(C(=O)C5CCC5)CC4)n3)c(C3CC3)c2)CC1` [Example 9], for which the IC50 was in the range of 100 to 1000 nM.
`CN1CCN(c2ccc(Nc3ncc(C(F)(F)F)c(NC4CCN(C)C(=O)C4)n3)c(C3CC3)c2)CC1` (stereo not shown) [Example 10] registered an IC50 of 100 to 1000 nM.
Still for that read-out and setting: under `CN1CCN(c2ccc(Nc3ncc(C(F)(F)F)c(N[C@H]4CCN(C)C4=O)n3)c(C3CC3)c2)CC1` [Example 11] stands 100 to 1000 nM.
Consider `CN1CCN(c2ccc(Nc3ncc(C(F)(F)F)c(N4CCC(CN5CCCCC5=O)C4)n3)c(C3CC3)c2)CC1` (stereo not shown) [Example 12], for which the half-inhibitory concentration (IC50) lay within 100 to 1000 nM.
The compound `Cc1ccnn1C1CCN(c2nc(Nc3ccc(N4CCN(C)CC4)cc3C3CC3)ncc2C(F)(F)F)CC1` [Example 13] displayed an IC50 of 100 to 1000 nM.
Still for that read-out and setting: under `CN1CCN(c2nc(Nc3cccc(CN4CCOCC4)c3)ncc2C(F)(F)F)CC1=O` [Example 16] stands > 1000 nM; under `CN1CCN(c2ccc(Nc3ncc(C(F)(F)F)c(OC4CCN(C)C(=O)C4)n3)c(C3CC3)c2)CC1` (stereo not shown) [Example 17], < 100 nM.
As to `CN1CCN(c2ccc(Nc3ncc(C(F)(F)F)c(OC4CCN(C(=O)C5CCC5)CC4)n3)c(C3CC3)c2)CC1` [Example 18], the IC50 is 100 to 1000 nM.
The same measure, in the same setting: under `CN1CCN(c2nc(Nc3cccc(Nc4ccc(N)cc4)c3)ncc2C(F)(F)F)CC1=O` [Example 21] stands 100 to 1000 nM.
Still for that read-out and setting: in the case of `CN1CCN(c2nc(Nc3cccc(NC(=O)N4CCCC4)c3)ncc2C(F)(F)F)CC1=O` [Example 22] it was > 1000 nM; in that of `CN1CCC2(CCN(c3nc(Nc4ccc(N5CCOCC5)cc4)ncc3C(F)(F)F)CC2)C1` [Example 23], < 100 nM; in that of `CN1CCN(c2ccc(Nc3ncc(C(F)(F)F)c(N4CC5(CCN(C)C5)C4)n3)c(C3CC3)c2)CC1` [Example 25], < 100 nM.
On the same count and under the same terms, in the case of `CN1CCN(c2ccc(Nc3ncc(C(F)(F)F)c(CCNC(=O)C4CCC4)n3)c(C3CC3)c2)CC1` [Example 27] it was 100 to 1000 nM; in that of `CN1CCN(c2ccc(Nc3ncc(C(F)(F)F)c(CCN4CCCCC4=O)n3)c(C3CC3)c2)CC1` [Example 28], 100 to 1000 nM.
Turning to `CN1CCC(n2cc(-c3nc(Nc4ccc(N5CCN(C)CC5)cc4C4CC4)ncc3C(F)(F)F)cn2)CC1` [Example 33], the IC50 was < 100 nM.
`CN1CCC(COc2ccc(Nc3ncc(C(F)(F)F)c(OCCCN4CCCCC4=O)n3)c(C3CC3)c2)CC1` [Example 34] came in with an IC50 of 100 to 1000 nM.
On the same count and under the same terms, under `CN1CCN(c2ccc(Nc3ncc(C(F)(F)F)c(N4CCC5(CCNC5=O)CC4)n3)c(C3CC3)c2)CC1` [Example 35] stands < 100 nM.
Same read-out and setting: in the case of `CN1CCN(c2ccc(Nc3ncc(C(F)(F)F)c(N4CCC5(CC4)CN(C)C5)n3)c(C3CC3)c2)CC1` [Example 36] it was > 1000 nM; in that of `CN1CCN(c2ccc(Nc3ncc(C(F)(F)F)c(N4CCC5(CN(C)C5)C4)n3)c(C3CC3)c2)CC1` [Example 38], < 100 nM.
The same measure, in the same setting: under `CN1CCN(c2ccc(Nc3ncc(C(F)(F)F)c(N4C5CCC4C(=O)N(C)C5)n3)c(C3CC3)c2)CC1` (stereo not shown) [Example 39] stands < 100 nM.
As to `Cc1ccn(C2CCN(c3nc(Nc4ccc(N5CCN(C)CC5)cc4C4CC4)ncc3C(F)(F)F)C2)n1` (stereo not shown) [Example 41], the IC50 was < 100 nM.
Take `CN1CCN(c2ccc(Nc3ncc(C(F)(F)F)c(COCCN4CCCCC4=O)n3)c(C3CC3)c2)CC1` [Example 42]: the IC50 is > 1000 nM.
The same measure, in the same setting: under `CC(=O)Nc1ccc(Nc2cccc(Nc3ncc(C(F)(F)F)c(N4CCN(C)C(=O)C4)n3)c2)cc1` [Example 43] stands > 1000 nM.
As to `CN1CCN(c2ccc(Nc3ncc(C(F)(F)F)c(NCCCc4ccccc4C#N)n3)c(C3CC3)c2)CC1` [Example 44], the IC50 was < 100 nM.
The same measure, in the same setting: in the case of `CN1CCN(c2ccc(Nc3ncc(C(F)(F)F)c(N4CCN(C5CCCNC5)C(=O)C4)n3)c(C3CC3)c2)CC1` (stereo not shown) [Example 45] it was 100 to 1000 nM.
Turning to `CN1CC[C@@H](Oc2ccc(Nc3ncc(C(F)(F)F)c(OCCCN4CCCCC4=O)n3)c(C3CC3)c2)C1` [Example 46], the IC50 was < 100 nM.
Still for that read-out and setting: under `CN1CCN(c2ccc(Nc3ncc(C(F)(F)F)c(OCCCC(=O)N4CCOCC4)n3)c(C3CC3)c2)CC1` [Example 47] stands < 100 nM; under `CN1CCN(c2ccc(Nc3ncc(C(F)(F)F)c(N4CC5(CCN(C)CC5)C4)n3)c(C3CC3)c2)CC1` [Example 48], < 100 nM.
With `CN1CCN(c2ccc(Nc3ncc(C(F)(F)F)c(N4CC5(CCCN(C)C5)C4)n3)c(C3CC3)c2)CC1` [Example 50], the IC50 lay in the range of 100 to 1000 nM.
Same read-out and setting: in the case of `CN1CCN(c2ccc(Nc3ncc(C(F)(F)F)c(NC4CCC(N5CCCC5=O)CC4)n3)c(C3CC3)c2)CC1` (stereo not shown) [Example 52] it was < 100 nM.

Usually IC50 stands for the concentration needed to halve the response being measured.
